In brackets after ≈: the same amount, converted by molar mass. Like-named read-outs stand apart in the source and are kept apart here.
What was measured:
Experiment in all cases: In vitro antibacterial MIC, agar plate dilution
Format in all cases: cell-based
[1] = tested on: Moranella morganii VGH 84-12; details: Mueller-Hinton agar, 10^4 CFU, 18 hours, 35° C.
Protocol: (§1) The in vitro antimicrobial spectrum of the compounds of this invention were determined by the agar plate dilution method with Mueller-Hinton agar and an inoculum of each test organism of approximately 10^4 colony forming units delivered by the Steers replicating device. The minimal inhibitory concentration (MIC) in mcg/ml is defined as the lowest concentration of test compound that inhibited visible growth after 18 hours incubation at 35° C. Results are given in Table I, with the test compounds identified by the number of their hereinafter described examples

[2] = tested on: Staphylococcus faecalis CMC 83-120; details: CMC83120, Mueller-Hinton agar, 10^4 CFU, 18 hours, 35° C.
Protocol: as §1

[3] = tested on: Morganella morganii MOR 84-45; details: MOR8445, Mueller-Hinton agar, 10^4 CFU, 18 hours, 35° C.
Protocol: as §1

[4] = tested on: Excherichia coli CMC 84-11; details: 18 h, Table II, read-out: MIC
Protocol: as §1

[5] = tested on: Serratia marcescens K 84-18; details: K8418, 18 h, Table II, read-out: MIC
Protocol: as §1

[6] = tested on: Staphylococcus aureus Smith 1; details: Staphylococcus aureus, SMITH1, 18 h, Table II, read-out: MIC
Protocol: as §1

[7] = tested on: Serratia marcescens IO 83-63; details: IO8363, Mueller-Hinton agar, 10^4 CFU, 18 hours, 35° C.
Protocol: as §1

[8] = tested on: Moranella morganii CMC 84-38; details: Mueller-Hinton agar, 10^4 CFU, 18 hours, 35° C.
Protocol: as §1

[9] = tested on: Morganella morganii CMC 84-37; details: CMC8437, 18 h, Table II, read-out: MIC
Protocol: as §1

[10] = tested on: Pseudomonas aeruginosa CMC 83-20; details: CMC8320, Mueller-Hinton agar, 10^4 CFU, 18 hours, 35° C.
Protocol: as §1

[11] = tested on: Citrobacter diversus K 82-24; details: Citrobacter koseri, K8224, Mueller-Hinton agar, 10^4 CFU, 18 hours, 35° C.
Protocol: as §1

[12] = tested on: Escherichia coli CMC 84-50; details: CMC8450, Mueller-Hinton agar, 10^4 CFU, 18 hours, 35° C.
Protocol: as §1

[13] = tested on: Klebsiella neumoniae CMC 84-31; details: CMC8431, Mueller-Hinton agar, 10^4 CFU, 18 hours, 35° C.
Protocol: as §1

[14] = tested on: Staphylococcus faecalis VGH 84-69; details: VGH8469, Mueller-Hinton agar, 10^4 CFU, 18 hours, 35° C.
Protocol: as §1

[15] = tested on: Escherichia coli MOR 84-20; details: MOR8420, Mueller-Hinton agar, 10^4 CFU, 18 hours, 35° C.
Protocol: as §1

[16] = tested on: Serratia marcescens CMC 83-74; details: CMC8374, Mueller-Hinton agar, 10^4 CFU, 18 hours, 35° C.
Protocol: as §1

[17] = tested on: Staphylococcus aureus VGH 84-47; details: VGH8447, Mueller-Hinton agar, 10^4 CFU, 18 hours, 35° C.
Protocol: as §1

[18] = tested on: Proteus rettgeri IO 83-21; details: Providencia rettgeri, IO8321, Mueller-Hinton agar, 10^4 CFU, 18 hours, 35° C.
Protocol: as §1

[19] = tested on: Providencia stuartii CMC 83-3; details: CMC833, Mueller-Hinton agar, 10^4 CFU, 18 hours, 35° C.
Protocol: as §1

[20] = tested on: Klebsiella neumoniae MOR 84-24; details: MOR8424, Mueller-Hinton agar, 10^4 CFU, 18 hours, 35° C.
Protocol: as §1

[21] = tested on: Streptococcus faecalis UCI 85-19; details: Enterococcus faecalis, UCI8519, 18 h, Table II, read-out: MIC
Protocol: as §1

[22] = tested on: Staphylococcus aureus ATCC 29213; details: Staphylococcus aureus, ATCC29213, 18 h, read-out: MIC
Protocol: as §1

[23] = tested on: Enterobacter cloacae VGH 84-39; details: VGH8439, Mueller-Hinton agar, 10^4 CFU, 18 hours, 35° C.
Protocol: as §1

[24] = tested on: Streptococcus faecalis UCI 85-30; details: Enterococcus faecalis, UCI8530, Mueller-Hinton agar, 10^4 CFU, 18 hours, 35° C.
Protocol: as §1

[25] = tested on: Serratia marcescens VGH 84-30; details: VGH8430, 18 h, Table II, read-out: MIC
Protocol: as §1

[26] = tested on: Streptococcus faecalis VGH 84-65; details: Enterococcus faecalis, VGH8465, 18 h, Table II, read-out: MIC
Protocol: as §1

[27] = tested on: Staphylococcus aureus VGH 84-45; details: VGH8445, 18 h, Table II, read-out: MIC
Protocol: as §1

[28] = tested on: Escherichia coli VGH 84-19; details: VGH8419, Mueller-Hinton agar, 10^4 CFU, 18 hours, 35° C.
Protocol: as §1

[29] = tested on: Pseudomonas aeruginosa VGH 84-4; details: Pseudomonas aeruginosa, VGH844, 18 h, Table II, read-out: MIC
Protocol: as §1

[30] = tested on: Pseudomonas aeruginosa VGH 84-3; details: VGH843, Mueller-Hinton agar, 10^4 CFU, 18 hours, 35° C.
Protocol: as §1

[31] = Table I, Mueller-Hinton agar, 10^4 CFU, 18 hours, 35° C.

SMILES: N[C@H]1CCC[C@H]1Nc1cc2c(cc1F)c(=O)c(C(=O)O)cn2-c1ccc(F)cc1 (relative stereo) [Example 3]
- MIC [1]: 4 µg/mL (≈ 10 µM)
- MIC [2]: > 16 µg/mL
- MIC [3]: 4 µg/mL (≈ 10 µM)
- MIC [4]: 1 µg/mL (≈ 2.5 µM)
- MIC [5]: 2 µg/mL (≈ 5.01 µM)
- MIC [6]: 2 µg/mL (≈ 5.01 µM)
- MIC [7]: 4 µg/mL (≈ 10 µM)
- MIC [8]: 8 µg/mL (≈ 20 µM)
- MIC [9]: 4 µg/mL (≈ 10 µM)
- MIC [10]: > 16 µg/mL
- MIC [11]: 2 µg/mL (≈ 5.01 µM)
- MIC [12]: 4 µg/mL (≈ 10 µM)
- MIC [13]: 4 µg/mL (≈ 10 µM)
- MIC [14]: > 16 µg/mL
- MIC [15]: 2 µg/mL (≈ 5.01 µM)
- MIC [16]: > 16 µg/mL
- MIC [17]: 4 µg/mL (≈ 10 µM)
- MIC [18]: 4 µg/mL (≈ 10 µM)
- MIC [19]: > 16 µg/mL
- MIC [20]: 4 µg/mL (≈ 10 µM)
- MIC [21]: 64 µg/mL (≈ 160 µM)
- MIC [22, 31]: 4 µg/mL (≈ 10 µM)
- MIC ([22]; Table II): 4 µg/mL (≈ 10 µM)
- MIC [23]: 2 µg/mL (≈ 5.01 µM)
- MIC [24]: > 16 µg/mL
- MIC [25]: 8 µg/mL (≈ 20 µM)
- MIC [26]: 64 µg/mL (≈ 160 µM)
- MIC [27]: 4 µg/mL (≈ 10 µM)
- MIC [28]: 2 µg/mL (≈ 5.01 µM)
- MIC [29]: 16 µg/mL (≈ 40.1 µM)
- MIC [30]: > 16 µg/mL

SMILES: CCn1cc(C(=O)O)c(=O)c2cc(F)c(N[C@@H]3CCC[C@@H]3N)cc21 (relative stereo) [Example 4, Cis-7-[(2-Aminocyclopentyl)amino]-1-ethyl-6-fluoro-1,4-dihydro-4-oxo-3-quinolinecarboxylic acid]
- MIC [1]: 2 µg/mL (≈ 6 µM)
- MIC [2]: 4 µg/mL (≈ 12 µM)
- MIC [3]: 0.5 µg/mL (≈ 1.5 µM)
- MIC [4]: 2 µg/mL (≈ 6 µM)
- MIC [5]: 4 µg/mL (≈ 12 µM)
- MIC [6]: 8 µg/mL (≈ 24 µM)
- MIC [7]: 1 µg/mL (≈ 3 µM)
- MIC [8]: 1 µg/mL (≈ 3 µM)
- MIC [9]: 4 µg/mL (≈ 12 µM)
- MIC [10]: > 16 µg/mL
- MIC [11]: 0.5 µg/mL (≈ 1.5 µM)
- MIC [12]: 2 µg/mL (≈ 6 µM)
- MIC [13]: 2 µg/mL (≈ 6 µM)
- MIC [14]: 4 µg/mL (≈ 12 µM)
- MIC [15]: 1 µg/mL (≈ 3 µM)
- MIC [16]: > 16 µg/mL
- MIC [17]: 2 µg/mL (≈ 6 µM)
- MIC [18]: 2 µg/mL (≈ 6 µM)
- MIC [19]: > 16 µg/mL
- MIC [20]: 2 µg/mL (≈ 6 µM)
- MIC [21]: 32 µg/mL (≈ 96 µM)
- MIC [22, 31]: 4 µg/mL (≈ 12 µM)
- MIC ([22]; Table II): 128 µg/mL (≈ 384 µM)
- MIC [23]: 1 µg/mL (≈ 3 µM)
- MIC [24]: 4 µg/mL (≈ 12 µM)
- MIC [25]: 16 µg/mL (≈ 48 µM)
- MIC [26]: 32 µg/mL (≈ 96 µM)
- MIC [27]: 64 µg/mL (≈ 192 µM)
- MIC [28]: 1 µg/mL (≈ 3 µM)
- MIC [29]: 64 µg/mL (≈ 192 µM)
- MIC [30]: > 16 µg/mL

— patent US4992449A, “7-(substituted)cycloalkylamino-1 -(substituted)-6-fluoro-1,4-dihydro-4-oxo-3-quinolinecarboxylic acids” (American Cyanamid Company, priority 1990, dated 1991)
